The record followed here is US6489302B1, “Saccharide conjugates” (Deutches Krebsforschungszentrum Stiftung Des Offentlichen …, priority 1995, dated 2002).

Data set [1] relates to Dunning prostate tumor tissue. Nature of the data set: Whole-body autoradiography of the 14C-labeled conjugate in tumor-bearing Copenhagen rats. The format is in vivo, rat. The following applies: Copenhagen rats with transplanted Dunning prostate tumor, 315 mg/kg i.v. The text has this: (§1) This conjugate was labeled with ^14C according to common methods and used for the following treatment of rats.
(§2) The rats used were female Sprague-Dawley rats (SD rats; obtainable from Charles River Wiga, Sulzfeld, Germany) and male Copenhagen rats (obtainable from Harlan Sprague Dawley, Ind., U.S.A.).
Fresh pieces (2×2 mm) of Dunning prostate tumor tissue were transplanted into the Copenhagen rats. The tumors were allowed to grow for about one week until they were well palpable but not yet necrotic.
(§3) Groups of 5 healthy SD rats were given i.v. injections of 315 mg/kg β-D-Glc-IMP and 56.2 mg/kg of β-D-Glc-IMP, respectively. 5 of the tumor-bearing Copenhagen rats were given 315 mg/kg of β-D-Glc-IMP. The radioactive dose per injection was about 20 μCi. One animal of every group was killed with CO2 10 minutes, 1 hours, 2 hours, 8 hours and 24 hours, respectively, after the administration of the injection. The tissues of the rats were prepared for a common microtome preparation and the sections were subjected to autoradiography as described by Ullberg, S., (1977), in: Alvefeldt, O. (ed.) Special issue on whole-body autoradiography. Science Tools, Bromma, Sweden, p. 2).

Data set [2] is described as follows: Applicant's finding: side-effects. The following applies: as compared to cyclophosphoramide and isophosphoramide.
The next data set concerns tumor. Nature of the data set: Applicant's finding: anti-tumor properties.
A short description of data set [3]: Whole-body autoradiography of the 14C-labeled conjugate in rats after i.v. injection (organ distribution). It is filed as in vivo, rat. As to the method: as §1, §2, §3

For `O=P(NCCCl)(NCCCl)OC1OC(CO)C(O)C(O)C1O` [β-D-Glc-IMP, β-D-Glucosylisophosphoramide], the “accumulation in tumor tissue” value in data set [1] is on record as “strong accumulation”. For the same molecule, the side-effects entry in data set [2] is “extremely low side-effects”. Besides, in the data set on tumor, the anti-tumor properties entry is given as “good anti-tumor properties”. The “accumulation in organs, particularly the liver, kidneys, thymus and thyroid gland” value in data set [3] (10 minutes after i.v. injection, 315 mg/kg or 56.2 mg/kg) is given as “accumulated in organs”. Also, in data set [3] (8 hours after i.v. injection), the “presence in central nervous system, including the brain” value is “contained the conjugate”.
